Test results as given in PMC7997572 (2020).

Tests used:
Assay in all cases: CD melting
[1] = test system: Tel23-p (DNA, G4) TTAGGGTTAGGGTTAGGGTTAGGGTT; conditions: K+ (20 mM potassium phosphate, 5 mM KCl; Table S1 note: 5 mM phosphate, 20 mM KCl); pH 7.0; 150 μM compound (10 equiv), 15 μM DNA
[2] = test system: c-Kit1 (DNA, G4) AGGGAGGGCGCTGGGAGGAGGG; conditions: K+ (20 mM potassium phosphate, 5 mM KCl; Table S1 note: 5 mM phosphate, 20 mM KCl); pH 7.0; 150 μM compound (10 equiv), 15 μM DNA
[3] = test system: Tel23-h (DNA, G4) TTAGGGTTAGGGTTAGGGTTAGGGTT; conditions: K+ (20 mM potassium phosphate, 5 mM KCl; Table S1 note: 5 mM phosphate, 20 mM KCl); pH 7.0; 150 μM compound (10 equiv), 15 μM DNA
[4] = test system: Hairpin (DNA, hairpin) CGAATTCGTTTTCGAATTCG; conditions: K+ (20 mM potassium phosphate, 5 mM KCl; Table S1 note: 5 mM phosphate, 20 mM KCl); pH 7.0; 300 μM compound (10 equiv), 30 μM DNA
[5] = test system: c-Kit2 (DNA, G4) CGGGCGGGCGCTAGGGAGGGT; conditions: K+ (20 mM potassium phosphate, 5 mM KCl; Table S1 note: 5 mM phosphate, 20 mM KCl); pH 7.0; 150 μM compound (10 equiv), 15 μM DNA
[6] = test system: c-Myc (DNA, G4) TGAGGGTGGGTAGGGTGGGTAA; conditions: K+ (20 mM potassium phosphate, 5 mM KCl; Table S1 note: 5 mM phosphate, 20 mM KCl), pH 7.0, 150 μM compound (10 equiv), 15 μM DNA

Row | ΔTm [2] [°C] | ΔTm [3] [°C] | ΔTm [4] [°C] | SMILES | further results
1 | 1.5 ± 1.0 | 1.0 ± 1.0 | – | CC(C)(C)c1cc(/C=N/NC(=N)N)c(O)c(/C=C2/C(=O)Nc3c2ccc2ccccc32)c1 | ΔTm [1]: 27.0 ± 1.0 °C
2 | – | – | 7.0 ± 1.0 | COc1cc2c(/C=N/NC(=N)N)c(Cl)n(C)c2cc1C | –
3 | – | 10.0 ± 1.0 | – | Cc1cc2c(cc1O)/C(=C\c1cccc(/C=N/NC(=N)N)c1)C(=O)N2 | –
4 | – | – | 0.0 ± 1.0 | NC(N)=N/N=C/c1c(Cl)n(C/C=C/c2ccccc2)c2ccccc12 | –
5 | 14.5 ± 1.0 | – | – | O=C1Nc2c(ccc3ccccc23)/C1=C\c1cccc(/C=N/NC2=NCCN2)c1 | ΔTm [5]: 26.0 ± 1.0 °C; ΔTm ([6]; exact value not determinable): > 22 °C
6 | – | – | – | O=C1Nc2ccc(Cl)cc2/C1=C\c1cccc(/C=N/NC2=NCCN2)c1 | ΔTm [6]: 14.1 ± 1.0 °C
